# Entries after “also recorded” stand apart in the source; their conditions may differ.
# Key:
# [1] = tested on: mdx triangularis sterni (TS) muscle; experiment: Percent fibers and percent striated fibers in photographed areas of fixed mdx TS muscle; assay type: in vivo, mdx mice
# Description: To evaluate the effect of various chemical agents on animal models of MD, experimental male and female mdx mice may be injected intraperitoneally (ip) with various chemicals at different dosage. In the case of pyrrolidine dithiocarbamate (PDTC) (50-75 mg/kg of PDTC (obtained from Sigma) may be dissolved in a saline solution (HEPES-Ringer; in mM: 147.5 NaCl, 5 KCl, 2 CaCl2, 11 glucose, 5 HEPES, pH 7.35) for injection. […] The mice may be sacrificed after 1-24 months from the beginning of treatment to determine the effect of the treatment with the chemicals.
# In one embodiment, the treatment effect may be evaluated by comparing the morphological results between 3 regions of the triangularis sterni (TS); the caudal third of the muscle extending toward the xiphoid process, the middle third, and the cephalad third of the muscle. This procedure is adopted because there are obvious differences between these regions in the extent of pathology and the muscle thickness in the mdx TS (not clearly seen in the nondystrophic TS) even when examining the muscle at low power (e.g., 4×). Results from animals that die during the experimental time frame (both saline injected and PDTC treated) are typically excluded from the study.
# Morphological assessment of total fiber density and density of striated fibers may be conducted as described in the following text. Immediately after completing the resting potential measurements, the minimally stretched TS muscle preparations attached to the dissecting hooks may be fixed overnight in 2% glutaraldehyde (0.1 M cacodylate buffer) and subsequently washed several times in 0.1 M cacodylate. Before removing the preparation from the recording chamber, microphotographs of approximately 24 randomly sampled areas may be obtained at 200-300× magnification in caudal, middle, and cephalad regions of the TS. In the initial studies, a smaller number of photographs may be obtained over the middle portion of the TS muscle.
# Each preparation may be illuminated using bright-field optics to minimize depth of focus issues in visualizing muscle fiber striations. Since the mdx TS muscle is a flat and thin preparation, all the fibers in each area are roughly within the same focal plane. However, small variations in depth of focus may produce small variations in the appearance of striated fibers. Such effects may be minimized by routinely adjusting the plane of focus to maximize the number of striated fibers in each photographed area. The density of muscle fibers and the density of striated fibers may then be evaluated for each sampled area by drawing a line orthogonal to the principal axis of the TS muscle fibers across the entire viewing area of each photograph. The percentage of the length of this line that covered muscle fibers and the percentage of this line that covered striated muscle fibers (defined as having striations over at least 50% of the observed length) may be used to determine the percentage of muscle fibers and striated muscle fibers, respectively, for each photographed muscle area. Control experiments using these procedures on adult nondystrophic TS muscles (N=37 areas, 2 TS muscles at 19 and 27 months) may yield average values of 99.1±0.5 (SE) percent fibers and 96.7±1.2 percent striated fibers with no regional differences across the caudal, middle, and cephalad thirds of the muscle (FIG. 3).
# In freshly isolated preparations of mdx TS muscle, hypercontraction and myofibrillar disorganization are expressed as a decrease in the appearance of striated muscle fibers (See e.g., FIG. 2A) and fiber loss and fibrosis appear as a decrease in the number of fibers in individual areas of the TS (See e.g., FIG. 2B; cf. Carlson et al., 2003 and Cullen and Fulthorpe, 1975). […]
# [2] = tested on: mdx triangularis sterni (TS) muscle; experiment: Histological cross sections of mdx TS muscle (fiber number, diameter, density, myonuclei, centronucleation); assay type: in vivo, mdx mice
# Text: To further examine the morphological effects of chronic treatment with inhibitors of the NFκB pathway, the fixed TS preparations used in these investigations on mature mdx mice (Series 2 through 4) were sectioned and stained with hematoxylin and eosin using standard histological procedures (FIG. 7A, 7B, 7C). […] PDTC treatment produced a significant (p<0.001) reduction in diameter in the caudal region and a significant (p<0.001) increase in diameter in the middle region in comparison to corresponding values from the vehicle-injected mdx mice (FIG. 9).
# To determine the density of muscle fibers in the mdx TS muscle, individual sections representing all of the fibers within each TS muscle were evaluated by determining the average number of fiber cross sections per unit length of the TS muscle where the length is defined along the axis orthogonal to the principal fiber axis. This procedure was performed for all of the available TS muscles initially used in the Series 2 and 3 PDTC investigations.
# Determination of the total number of myonuclei across all regions of the mature nondystrophic, mdx-vehicle, and mdx-PDTC treated TS muscles in conjunction with determination of the total number of fiber cross sections in the same preparations provided an immediate measure of the number of myonuclei per sectioned fiber (FIG. 12).
# These morphological results provide direct evidence that inhibitors of the NFκB pathway may have beneficial effects in treating both young and mature dystrophic preparations.
# [3] = Series 2 and 3, vs age-matched vehicle
# [4] = mature mdx, vs vehicle-injected, p<0.001
structure (smiles),measurement,setting,value
"S=C(S)N1CCCC1 [PDTC, pyrrolidine dithiocarbamate]",density of fibers in the TS,"[1]; 50 mg/kg ip 48-76 days, Series 2 (11.5-18.5 months) and Series 3 (21.5-22 months)",increases
same,increase in the percentage of striated muscle fibers,"[1]; Series 1, vs untreated, P<0.01",3 fold
same,striated fibers in photographed area,"[1]; Series 1: 50-75 mg/kg ip daily 27-30 days, 8.5-9 months at sacrifice, middle region, FIG. 2C",approximately 82%
same,average percent fibers,"[1]; Series 1: 50-75 mg/kg ip daily 27-30 days, same in untreated",about 80%
same,density of striated fibers,"[1]; Series 1: 50-75 mg/kg ip, 27-30 days, 8.5-9 months at sacrifice",increases
same,increase in the percent of fibers,"[1]; Series 2: 50 mg/kg daily, 11.5-18.5 months at sacrifice, middle third, P<0.01 vs saline",1.7 fold
same,overall percent of fibers across all regions,"[1]; Series 2, P<0.05 vs saline",significant increase
same,increased percent of striated fibers,"[1]; Series 2, middle region, P<0.01 vs saline",8.4 fold
same,increase in the percent of striated fibers,"[1]; Series 3 (22 months), caudal, middle and overall total of sampled areas",22- to 68 fold
same,increases in the density of muscle fibers,"[1]; Series 3: aged mdx mice (22 months), 50 mg/kg daily, across all regions, P<0.01 or P<0.001",4.1- to 11.1 fold
same,overall percent fibers,"[1]; Series 4: individual mdx mouse, 50 mg/kg on 238 of 258 days, 13.5 months of age, N=25",82.2±2.6%
same,overall percent striated fibers,"[1]; Series 4: individual mdx mouse, 50 mg/kg on 238 of 258 days, 13.5 months of age, N=25 areas",40.4±2.6%
same,effect of treatment on the percent of striated fibers,"[1]; Series 4: longer administration beginning in 5 month mdx mice, middle and cephalad regions, P<0.001",significant effect
same,density of striated TS fibers,"[1]; daily PDTC, Series 2 and Series 3",increases
same,"fiber number, caudal region",[2]; [3],substantial increases
same,"fiber number, cephalad region",[2]; [3],an increase
same,"fiber number, middle region",[2]; [3],no change
same,number of fibers per unit length,"[2]; Series 2 and 3, cephalad and caudal regions, p<0.05",increased
same,number of myonuclei per fiber,"[2]; Series 2 and 3 mature mdx, vs age matched vehicle, p<0.001",increase
same,"fiber number or density, middle region","[2]; chronic PDTC, mature mdx",without altering
same,density of fibers / loss of muscle fibers,"[2]; individual mdx mouse, 50 mg/kg on 238 of 258 days from 5 to 13.5 months, vs 14.6 month vehicle treated, 50 mg/kg",substantial improvements; also recorded: decreases the loss
same,percent centronucleation,"[2]; mature mdx mice, Series 2 and 3, p<0.001",reduced; also recorded: significantly decreased
same,"fiber diameter, caudal region",[2]; [4],reduction
same,"fiber diameter, middle region",[2]; [4],increase

# — patent US20100292306A1, “Compositions And Methods For The Treatment Of Muscular Dystrophy” (priority 2005, published 2010)
